Experimental data published in patent US5096911A, “Alteration of rate and character of hair growth” (priority 1990, dated 1992).
Blank lines part the entries; values can stand above or below the molecule they belong to.

What was measured:
Hamster flank organ hair = assay: Inhibition of hair growth: hamster flank organ hair mass after topical application; format: in vivo, male intact Golden Syrian hamsters; details: three weeks; for Percent Inhibition (of hair mass vs vehicle-treated organ) / Hamster Flank Organ Hair Mass, Treated (mean): once a day, five days a week
Description: Acivicin (Sigma Chemical Co., St. Louis) was mixed with separate portions of the foregoing vehicle to provide specimens containing 1,2, and 6% by weight respectively of the inhibitor and the pH was adjusted to pH 7.5 with sodium hydroxide.
Four groups (eight animals in each group) of male intact Golden Syrian hamsters were provided. These animals were considered acceptable models for human beard hair growth in that they display oval shaped flank organs, one on each side, each about 8 mm. in major diameter, which grow thick black and coarse hair similar to human beard hair. These organs produce hair in response to androgens in the hamster. The flank organs of each hamster were depilated by applying a thioglycolate- based chemical depilatory (Surgex), and to one organ of each animal was applied 10-25 mg. of vehicle alone once a day, while to the other organ of each animal was applied an equal amount of vehicle containing inhibitor. After three weeks of such applications (five days a week), the flank organs were shaved and the amount of recovered hair (hair mass) from each was weighed. The extent of reduction in hair growth by the inhibitor was expressed as the percent decrease in hair mass on the organ treated with inhibitor as compared to the organ treated with vehicle alone. As a control, one group of eight animals had both flank organs of each animal treated with vehicle alone.
A composition was prepared containing 5% by weight of bromsulphalein disodium in the vehicle described in Example I above, and applied to hamster flank organs under the same conditions as described in Example 1.
The anthglutin prepared as described above was dissolved in specimens of the vehicle described in Example 1 and applied to the flank organs of groups of hamsters in the same manner as described in Example 1, a group of eight animals being used for each different composition.

follicle enzyme = assay: Inhibition of follicle enzyme activity after topical treatment over three weeks; format: in vivo, Golden Syrian hamsters; details: 6% solution, three week period
[1] = tested on: gamma-glutamyl transpeptidase; details: Japanese Patent No. 53-127,432; Minato, Archives Biochem. Biophy., Vol. 192, 235-240 (1979); cited from earlier work
[2] = tested on: hair follicle gamma-glutamyl transpeptidase; assay: Inhibition of hair follicle gamma-glutamyl transpeptidase activity; format: biochemical

Compound: N[C@H](C(=O)O)[C@@H]1CC(Cl)=NO1 [Acivicin, (alpha S,5S)-amino-3-chloro-4,5-dihydro-isoxazole acetic acid]
Percent Inhibition (of hair mass vs vehicle-treated organ) (Hamster flank organ hair; acivicin 1.0%, topical): 18.2%
Hamster Flank Organ Hair Mass, Treated (mean) (Hamster flank organ hair; acivicin 1.0%, topical, contralateral vehicle organ 1.04 mg): 0.85 mg
Percent Inhibition (of hair mass vs vehicle-treated organ) (Hamster flank organ hair; acivicin 2.0%, topical): 57.9%
Hamster Flank Organ Hair Mass, Treated (mean) (Hamster flank organ hair; acivicin 2.0%, topical, contralateral vehicle organ 1.33 mg): 0.56 mg
Percent Inhibition (of hair mass vs vehicle-treated organ) (Hamster flank organ hair; acivicin 6.0%, topical): 81.0%
Hamster Flank Organ Hair Mass, Treated (mean) (Hamster flank organ hair; acivicin 6.0%, topical, contralateral vehicle organ 0.79 mg): 0.15 mg
character of hair on the treated organ vs untreated organ (Hamster flank organ hair; topical acivicin): more vellus in nature
inhibition of follicle enzyme activity (follicle enzyme): about 87%

inhibition of the activity / inhibitory affinity for hair follicle gamma-glutamyl transpeptidase [2]: strong inhibitory affinity
Compound: N[C@@H](CCC(=O)NNc1ccccc1C(=O)O)C(=O)O [Anthglutin, 1-gamma-L-glutamyl-2 (2-carboxyphenyl)-hydrazine]
Percent Inhibition (of hair mass vs vehicle-treated organ) (Hamster flank organ hair; anthglutin 0.5%, topical): 10.7%
Hamster Flank Organ Hair Mass, Treated (mean) (Hamster flank organ hair; anthglutin 0.5%, topical, contralateral vehicle organ 2.03 mg): 1.81 mg
Percent Inhibition (of hair mass vs vehicle-treated organ) (Hamster flank organ hair; anthglutin 1.0%, topical): 16.7%
Hamster Flank Organ Hair Mass, Treated (mean) (Hamster flank organ hair; anthglutin 1.0%, topical, contralateral vehicle organ 1.92 mg): 1.60 mg
Percent Inhibition (of hair mass vs vehicle-treated organ) (Hamster flank organ hair; anthglutin 2.0%, topical): 38.6%
Hamster Flank Organ Hair Mass, Treated (mean) (Hamster flank organ hair; anthglutin 2.0%, topical, contralateral vehicle organ 2.57 mg): 1.58 mg
Percent Inhibition (of hair mass vs vehicle-treated organ) (Hamster flank organ hair; anthglutin 6.0%, topical): 67.2%
Hamster Flank Organ Hair Mass, Treated (mean) (Hamster flank organ hair; anthglutin 6.0%, topical, contralateral vehicle organ 2.26 mg): 0.74 mg
inhibition of gamma-glutamyl transpeptidase [1]: specific inhibitor of gamma-glutamyl transpeptidase

Compound: O=C1OC(c2ccc(O)c(S(=O)(=O)O)c2)(c2ccc(O)c(S(=O)(=O)O)c2)c2c(Br)c(Br)c(Br)c(Br)c21 [bromsulphalein disodium, 5,5'-(4,5,6,7-tetrabromo-3-oxo-1(3H)-isobenzofuranylidene) bis[2-hydroxybenzenesulfonic acid]]
inhibition of hair mass (Hamster flank organ hair; 5% by weight bromsulphalein disodium, topical): 32%
